Test [1] has as its system pectic acid lyases from Example 3 and Example 8. Format: biochemical, Bacillus sp. KSM-P15. The following applies: pH 7.5.
Test [2] relates to pectic acid lyase from Bacillus sp. KSM-P15, wild type (BPAL, Example 3), Sequence No. 1. As to the kind of experiment: Effect of H2O2 on residual pectic acid lyase activity. Format: biochemical. The following applies: in the presence of 3% H2O2; 50 mM Tris-HCl buffer (pH 7.5), 30°C, 30 minutes. On the procedure:
(§1) 0.5 M glycine-NaOH buffer (pH 10.5) (0.3 ml), 6 mM calcium chloride (0.3 ml), and deionized water (1.7 ml) were placed in a test tube, which was then incubated at 30°C for 5 minutes. An appropriately diluted enzyme solution [0.1 ml, diluted with 50 mM Tris-HCl buffer containing 1 mM calcium chloride (pH 7.5)] was added to the test tube, which was further incubated at constant temperature for 5 minutes. An aqueous solution of polygalacturonic acid (0.6 ml, 1% (w/v), product of ICN Biomedicals Co., Lot 14482, pH 6.8 adjusted with sodium hydroxide solution) was added to the enzyme solution to initiate reaction, and the mixture was incubated at 30°C for 10 minutes. The reaction was terminated by the addition of 3 ml of 50 mM HCl. The quantity of unsaturated Oligogalacturonic acid formed in the reaction was determined through measuring the absorbance at 235 nm and calculating with the molar extinction coefficient of unsaturated digalacturonide (4600 M^-1 cm^-1, Hasegawa & Nagel, J. Food Sci., 31, 838-845, 1966). A test blank was prepared as follows: 50 mM hydrochloric acid (3 ml) was added to a reaction mixture treated without being incorporated with the enzyme solution, and subsequently an enzyme solution (0.1 ml) was added thereto. […]

Test [3] has as its system recombinant pectic acid lyase of Bacillus sp. KSM-P15 (rPAL, Example 8), Sequence No. 1. The test is described as above. The test is classed as biochemical. The following applies: in the presence of 3% H2O2; 50 mM Tris-HCl buffer (pH 7.5), 30°C, 30 minutes. On the procedure:
as §1

In test [4] the test system is wild-type and reconbinant enzyme. Briefly: Effect of the arginine-modifier 2,3-butanedione on residual activity. The test is classed as biochemical, Bacillus sp. KSM-P15. The following applies: 0.1 M borate buffer pH 9.5, 30°C, 30 minutes; both enzymes.

Regarding `O=C(O)CI` [iodoacetic acid], the “inhibition (in words)” value in test [1] was “slightly inhibited or did not completely inhibit the enzymes”. The same measure, in the same setting: next, `O=C(O)c1cc(SSc2ccc([N+](=O)[O-])c(C(=O)O)c2)ccc1[N+](=O)[O-]` [5,5'-dithiobis(2-nitrobenzoic acid)]: “slightly inhibited or did not completely inhibit the enzymes”; `O=CC=O` [glyoxal]: “slightly inhibited or did not completely inhibit the enzymes”. On to `O=C1CCC(=O)N1Br` [N-bromosuccinimide], for which the percentage inhibition in test [1] was 30-40%. As to H2O2, the “inactivation (residual activity, in words)” value in test [2] and in test [3] was “not be inactivated” throughout. Regarding `CCOC(=O)OC(=O)OCC` [diethyl pyrocarbonate], the “inhibition (in words)” value in test [1] was “slightly inhibited or did not completely inhibit the enzymes”. Still for that read-out and setting: next, `CCN1C(=O)C=CC1=O` [N-ethylmaleimide]: “slightly inhibited or did not completely inhibit the enzymes”. The same measure, in the same setting: next, `O=C(O)c1cc[c]([Hg][Cl])cc1` [p-Chloromercuribenzoic acid]: “slightly inhibited or did not completely inhibit the enzymes”. As for `CC(=O)C(C)=O` [2,3-butanedione], in test [4], the “inhibition (residual activity)” value is no less than 40%. Consider `O[C@H](CS)[C@H](O)CS` (racemic) [dithiothreitol], for which, in test [1], the “inhibition (in words)” value is “slightly inhibited or did not completely inhibit the enzymes”.

These data come from patent EP1500700B1, “Use of a pectic acid lyase in a detergent” (KAO CORPORATION, priority 1997, dated 1998).
